The text below walks through data of patent US20100222384A1 (priority 2009, published 2010).

Each structure is given as a SMILES string. pEC50: −log10 of the molar value.

The first experiment concerns Pichinde virus CoAn 3739 strain. Format: cell-based.
Details: not given
Take `CCCCN1C[C@H](O)[C@@H](O)[C@H](O)[C@H]1CO` [NB-DNJ, N-Butyl deoxynojirimycin]: the “PICV in vitro inhibition” value is recorded as “over 50%”.
`CCCOCCCCCCN1C[C@H](O)[C@@H](O)[C@H](O)[C@H]1CO` [N7-O-DNJ, N-(7-Oxadecyl)deoxynojirimycin]: the “PICV in vitro inhibition” value was 70%.
On the same count and under the same terms, with `COCCCCCCCCCN1C[C@H](O)[C@@H](O)[C@H](O)[C@H]1CO` [N9-DNJ, N-(9-Methoxynonyl)deoxynojirimycin] the entry was “over 99%”.

The next experiment has as its system Junin virus Candid #1 strain. Type of experiment: cell-based. The note with it: read-out: EC50, Junin virus inhibition.
Take `CCCCN1C[C@H](O)[C@@H](O)[C@H](O)[C@H]1CO` [NB-DNJ, N-Butyl deoxynojirimycin]: the pEC50 is 3.46.
Take `[N-]=[N+]=Nc1ccc(NCCCCCCN2C[C@H](O)[C@@H](O)[C@H](O)[C@H]2CO)c([N+](=O)[O-])c1` [NAP-DNJ, N-(N-{4′-azido-2′-nitrophenyl}-6-aminohexyl)deoxynojirimycin]: the pEC50 is 5.00.
Same read-out and setting: with `CCCCCCCCCN1C[C@H](O)[C@@H](O)[C@H](O)[C@H]1CO` [NN-DNJ, N-Nonyl deoxynojirimycin] the figure was 4.22.

One may read the pEC50 as the EC50 on a negative log10 scale, so that one unit is a factor of ten.
